Results from patent publication US8779005B2, “Salts of desvenlafaxine and a method of their preparation” (Zentiva k.s., priority 2009, dated 2014).

What was measured:
[1] = Measurement of the dissolution rate (USP Wood Apparatus, rotary disk method); type: physicochemical; conditions: for Dissolution rate constants at pH 2: pH 2 (0.01 M HCl), 37° C.; for Dissolution rate constants at pH 2 / Dissolution rate constants at pH 6.8: rotary disk; for Dissolution rate constants at pH 6.8: phosphate buffer of pH 6.8, 37° C.
Procedure: Measurement of the Dissolution Rate The dissolution rate of desvenlafaxine salts (Table 2) in water at various pH values was measured in a Varian-Vankel System, USP Wood Apparatus (rotary disk method). A disk with the diameter of 5 mm was prepared by compression from about 0.2 g of the substance.

[2] = in vivo; cited from earlier work
[3] = Measurement of equilibrium solubility; conditions: 24-hour stirring; for solubility thermodynamic at 24 h: 25 °C, thermodynamic from solid; for Equilibrium solubility at pH 2: pH 2 (0.01 M HCl), 25° C.; for Equilibrium solubility at pH 6.8: phosphate buffer of pH 6.8, 25° C.
[4] = 0.01 M HCl, pH 2, simulated gastric fluid, Equilibrium solubility at pH 2, pH 2 (0.01 M HCl)
[5] = phosphate buffer, pH 6.8, aqueous buffer, Equilibrium solubility at pH 6.8, phosphate buffer of pH 6.8, 25° C.
[6] = dihydrate, Hemioxalate Trihydrate

Row | Dissolution speed in water relative to hydrogen fumarate ([1]; in water, compared with hydrogen fumarate) | Dissolution rate constants at pH 2 [1] | Dissolution rate constants at pH 6.8 [1] | solubility thermodynamic at 24 h [3, 4] | solubility thermodynamic at 24 h [3, 5] | Equilibrium solubility at pH 2 [3] | Equilibrium solubility at pH 6.8 [3] | Dissolution rate constants at pH 2 ([1]; Hemioxalate Trihydrate) | Dissolution rate constants at pH 6.8 ([1]; Hemioxalate Trihydrate) | Equilibrium solubility at pH 2 [3, 6] | Equilibrium solubility at pH 6.8 [3, 6] | Structure (SMILES) | Biological availability (absorption of desvenlafaxine in rat intestine) relative to hydrogen fumarate [2]
1 | approximately twice as fast | 3.1 mg/cm^2/min | 3.2 mg/cm^2/min | 53 mg/mL | 58 mg/mL |  |  |  |  |  |  | CN(C)CC(c1ccc(O)cc1)C1(O)CCCCC1.O=C(O)CCC(=O)O (centres unmarked) [Hydrogen succinate hydrate, Desvenlafaxine hydrogen succinate] | roughly three times higher
2 |  | 0.8 mg/cm^2/min | 0.8 mg/cm^2/min | 8 mg/mL | 8 mg/mL |  |  |  |  |  |  | CN(C)CC(c1ccc(O)cc1)C1(O)CCCCC1.O=C(O)/C=C/C(=O)O (centres unmarked) [Hydrogen fumarate hydrate, Desvenlafaxine hydrogen fumarate] | 
3 |  | 7.1 mg/cm^2/min | 6.0 mg/cm^2/min | 89 mg/mL | 63 mg/mL |  |  |  |  |  |  | CN(C)CC(c1ccc(O)cc1)C1(O)CCCCC1.O=C(O)C(=O)O (centres unmarked) [Hydrogen oxalate hydrate, Desvenlafaxine Hydrogen Oxalate Hydrate] | 

Further lines, the molecule ahead of its results:

Row | Structure (SMILES) | Dissolution speed in water relative to hydrogen fumarate ([1]; in water, compared with hydrogen fumarate) | Dissolution rate constants at pH 2 [1] | Dissolution rate constants at pH 6.8 [1] | solubility thermodynamic at 24 h [3, 4] | solubility thermodynamic at 24 h [3, 5] | Equilibrium solubility at pH 2 [3] | Equilibrium solubility at pH 6.8 [3] | Dissolution rate constants at pH 2 ([1]; Hemioxalate Trihydrate) | Dissolution rate constants at pH 6.8 ([1]; Hemioxalate Trihydrate) | Equilibrium solubility at pH 2 [3, 6] | Equilibrium solubility at pH 6.8 [3, 6] | Biological availability (absorption of desvenlafaxine in rat intestine) relative to hydrogen fumarate [2]
4 | CN(C)CC(c1ccc(O)cc1)C1(O)CCCCC1 (centres unmarked) [Hemioxalate, anhydrous, Anhydrous Desvenlafaxine Hemioxalate] |  | 6.6 mg/cm^2/min | 5.9 mg/cm^2/min |  |  | 92 mg/ml | 80 mg/ml |  |  |  |  | 
5 | CN(C)CC(c1ccc(O)cc1)C1(O)CCCCC1 (centres unmarked) [Hemioxalate, hydrate, Desvenlafaxine Hemioxalate Trihydrate] |  |  |  |  |  |  |  | >10 mg/cm^2/min | >10 mg/cm^2/min | 86 mg/ml | 71 mg/ml | 
6 | CN(C)CC(c1ccc(O)cc1)C1(O)CCCCC1 (centres unmarked) [Base, Desvenlafaxine] |  | 0.6 mg/cm^2/min | 0.2 mg/cm^2/min |  |  | 2 mg/ml | 4 mg/ml |  |  |  |  | 
